# Reference: patent publication US11884662B2, “N-1 branched cycloalkyl substituted imidazo[4,5-c]quinoline compounds, compositions, and methods” (3M INNOVATIVE PROPERTIES COMPANY, priority 2018, dated 2024)
# Key:
# [1] = tested on: Human peripheral blood mononuclear cells (PBMC); experiment: Cytokine Induction in Human Cells; assay type: cell-based; settings: 21-24 hours culture, lowest concentration inducing at least 2× negative control; for MEC to Induce Cytokine IFN-alpha: IFN-alpha by ELISA; for MEC to Induce Cytokine IFN-gamma: IFN-gamma by multiplex bead assay; for MEC to Induce Cytokine TNF-alpha: TNF-alpha by multiplex bead assay
# Method: Cytokine Induction in Human Cells
# Whole blood was obtained from healthy human donors and collected by venipuncture into vacutainer tubes or syringes containing EDTA. Human peripheral blood mononuclear cells (PBMC) were purified from the whole blood by density gradient centrifugation. Histopaque 1077 (15 mL, Sigma, St. Louis, MO) was transferred to 6×50 mL sterile polypropylene conical tubes. The Histopaque was overlayed with 15-25 mL of blood diluted 1:2 in Hank's Balanced Salts Solution (HBSS) (Gibco, Life Technologies, Grand Island, NY). The tubes were then centrifuged at 1370 rpm for 30 minutes at 20° C., with no brake (400×g, GH 3.8A Rotor).
# The interface (buffy coat) containing the PBMC was collected and placed in a new sterile 50 mL conical polypropylene centrifuge tube. The PBMC were mixed with an equal volume of HBSS (about 20 mL from the interface and about 20 mL of HBSS), and then centrifuged at 1090 rpm, 10 minutes, 20° C., with brake (270×g, GH 3.8A Rotor). After completing centrifugation, the cells were resuspended in 2-3 mL ACK Red blood cell lysis buffer (ammonium chloride potassium solution, Gibco, Life Technologies) and incubated for 2-5 minutes at 20° C. Next, HBSS (40 mL) was added to the cells, and the sample was centrifuged at 270×g for 10 minutes at 20° C. The supernatant was decanted, and the cell pellet was resuspended in 5 mL AIM V Medium (Gibco, Life Technologies). Cell aggregates and debris were removed by filtering the cell solution through a BD Falcon 70 micron nylon cell strainer (BD Biosciences, San Jose, CA).
# The number of viable cells was determined by counting with a Miltenyi FACS instrument (Miltenyi Biotec Inc., San Diego, CA) or by using a hemacytometer. For determining cell viability with a hemacytometer, the cells were diluted 1/10 in 0.4% trypan blue and HBSS (specifically, 50 microliter of trypan blue+40 microliter of HBSS+10 microliter of cell solution were added to a microfuge tube and mixed). Ten microliters of the diluted cells were then applied to the hemacytometer, and the number of viable PBMC were determined by microscopy.
# The PBMC sample was then resuspended in 96-well plates at a concentration of 8×10^5 cells/well in 0.1 mL of AIM-V medium. Each compound was solubilized in DMSO to create a 3 mM stock solution. The stock solution was then further diluted with AIM-V medium to prepare the serial dilutions. The diluted compound (100 microliters) was then transferred to the PBMCs to achieve a testing set with final compound concentrations of 30, 10, 3.3, 1.1, 0.37, 0.12, 0.04, 0.01 micromolar or a testing set with final compound concentrations of 100, 33.3, 11.1, 3.7, 1.2, and 0.4 micromolar. The plates also had both positive and negative controls. The negative control wells contained only AIM-V medium with no example compound. The positive control wells contained a control set of imiquimod serially diluted to concentrations of 30, 10, 3.3, 1.1, 0.37, 0.12, 0.04, 0.01 micromolar or a control set of imiquimod serially diluted to concentrations of 100, 33.3, 11.1, 3.7, 1.2, and 0.4 micromolar. The concentrations used in the control set were selected to match the concentrations used in the testing set. The plates were then cultured at 37° C./5% CO2 for 21-24 hours. Cell-free supernatants were harvested by centrifuging the 96-well plates at 2100 rpm, 23° C. for 10 minutes. Approximately 160 microliters of the supernatant was then stored in a NUNC 96-well plate, covered with the compression cap and stored at −80° C. until the cytokine analysis was done.
# IFN-alpha cytokine levels (picograms/mL) were measured by ELISA (human IFN-alpha, pan specific, Mabtech, Cincinnati, OH). IFN-gamma and TNF-alpha levels (picograms/mL) were measured by multiplex bead assay (magnetic beads, R & D Systems Minneapolis, MN) according to the manufacturer's instructions. […]
# [2] = tested on: Human dermal adult fibroblast cells; experiment: Cell Viability Determination (resazurin); assay type: cell-based; settings: human dermal adult fibroblasts, compound 200 micromolar, 24 hours, normalized to untreated vehicle control, n=3
# Method: Cell Viability Determination
# Each compound was individually dissolved in DMSO and then in Dulbecco's minimum essential cell culture medium (DMEM, Gibco, Life Technologies) containing 10% fetal bovine serum (Corning Life Sciences, Tewksbury, MA) and 1× antibiotic/antimycotic solution. The final DMSO concentration in a 200 micromolar compound concentration was 0.5%.
# Human dermal adult fibroblast cells (ATCC, Manassas, VA) were seeded (7,500 cells/wells in a 96-well tissue culture polystyrene plate) in 100 microliters of DMEM cell culture medium containing 10% fetal bovine serum and 1× antibiotic/antimycotic solution. After approximately 18-24 hours of incubation in a humidified environment at 37° C. with 5% CO2, the wells were individually treated with one of the compounds in cell culture medium at a compound concentration of 200 micromolar or with 0.5% DMSO in cell culture medium as the vehicle (untreated) control. The cells were then incubated for 24 hours in a humidified environment at 37° C. with 5% CO2. Cell viability was determined using resazurin according to the procedure described by O'Brien, J. et al., European Journal of Biochemistry, 2000, 267(17): 5421-5426. Cell viability was normalized to the vehicle (untreated) cell control. In Table 14, the mean percent cell viability (n=3) is reported for the compounds of Examples 1, 2, 4, 5 and for 1-[(4-amino-1H-imidazo[4,5-c]quinoline-1-yl)methyl] cyclopentanol (the Comparative Example compound).
smiles,measurement,setting,value
"CC[C@@H](n1cnc2c(N)nc3ccccc3c21)C1(O)CCCC1 [Example 4, 1-[(1R)-1-(4-aminoimidazo[4,5-c]quinolin-1-yl)propyl]cyclopentanol]",MEC to Induce Cytokine IFN-alpha,[1],1.1 µM
same,MEC to Induce Cytokine IFN-gamma,[1],1.1 µM
same,MEC to Induce Cytokine TNF-alpha,[1],0.37 µM
same,Mean Percent Cell Viability,[2],86%
"CC[C@H](n1cnc2c(N)nc3ccccc3c21)C1(O)CCCC1 [Example 5, 1-[(1S)-1-(4-aminoimidazo[4,5-c]quinolin-1-yl)propyl]cyclopentanol]",MEC to Induce Cytokine IFN-alpha,[1],>30 µM
same,MEC to Induce Cytokine IFN-gamma,[1],>30 µM
same,MEC to Induce Cytokine TNF-alpha,[1],>30 µM
same,Mean Percent Cell Viability,[2],78%
"C[C@@H](n1cnc2c(N)nc3ccccc3c21)C1(O)CC=CC1 [Example 3, 1-[(1R)-1-(4-aminoimidazo[4,5-c]quinolin-1-yl)ethyl]cyclopent-3-en-1-ol]",MEC to Induce Cytokine IFN-alpha,[1],3.3 µM
same,MEC to Induce Cytokine IFN-gamma,[1],3.3 µM
same,MEC to Induce Cytokine TNF-alpha,[1],3.3 µM
"C[C@H](n1cnc2c(N)nc3ccccc3c21)C1(O)CCCC1 [Example 2, 1-[(1S)-1-(4-aminoimidazo[4,5-c]quinolin-1-yl)ethyl]cyclopentanol]",MEC to Induce Cytokine IFN-alpha,[1],>30 µM
same,MEC to Induce Cytokine IFN-gamma,[1],>30 µM
same,MEC to Induce Cytokine TNF-alpha,[1],>30 µM
same,Mean Percent Cell Viability,[2],81%
"CC[C@@H](n1cnc2c(N)nc3ccccc3c21)C1(O)CCCCC1 [Example 6, 1-[(1R)-1-(4-aminoimidazo[4,5-c]quinolin-1-yl)propyl]cyclohexanol]",MEC to Induce Cytokine IFN-alpha,[1],1.2 µM
same,MEC to Induce Cytokine IFN-gamma,[1],1.2 µM
same,MEC to Induce Cytokine TNF-alpha,[1],1.2 µM
"Nc1nc2ccccc2c2c1ncn2CC1(O)CCCC1 [Comparative Example, 1-[(4-amino-1H-imidazo[4,5-c]quinoline-1-yl)methyl]cyclopentanol, reference compound]",MEC to Induce Cytokine IFN-alpha,[1],10 µM
same,MEC to Induce Cytokine IFN-gamma,[1],10 µM
same,MEC to Induce Cytokine TNF-alpha,[1],10 µM
same,Mean Percent Cell Viability,[2],2.1%
"C[C@@H](n1cnc2c(N)nc3ccccc3c21)C1(O)CCCC1 [Example 1, 1-[(1R)-1-(4-aminoimidazo[4,5-c]quinolin-1-yl)ethyl]cyclopentanol]",MEC to Induce Cytokine IFN-alpha,[1],3.3 µM
same,MEC to Induce Cytokine IFN-gamma,[1],3.3 µM
same,MEC to Induce Cytokine TNF-alpha,[1],3.3 µM
same,Mean Percent Cell Viability,[2],80%
